Measurements from publication PMC3743170 (Molecular Informatics, 2013).

Tests used:
PI3Kα = PI3Kα (Homo sapiens, UniProt P42336); assay: PI3Kα activity determination; type: biochemical; settings: 10-dose IC50 determination (n=3), 10 µM ATP
[1] = Dynamic light scattering aggregation; type: physicochemical; settings: aqueous solution with 1 % DMSO
human M1 receptor = biological target: T1, human M1 receptor (Homo sapiens, UniProt P11229); assay: Cell-based functional M1 agonist assay
T1 sequence (P11229 1-460): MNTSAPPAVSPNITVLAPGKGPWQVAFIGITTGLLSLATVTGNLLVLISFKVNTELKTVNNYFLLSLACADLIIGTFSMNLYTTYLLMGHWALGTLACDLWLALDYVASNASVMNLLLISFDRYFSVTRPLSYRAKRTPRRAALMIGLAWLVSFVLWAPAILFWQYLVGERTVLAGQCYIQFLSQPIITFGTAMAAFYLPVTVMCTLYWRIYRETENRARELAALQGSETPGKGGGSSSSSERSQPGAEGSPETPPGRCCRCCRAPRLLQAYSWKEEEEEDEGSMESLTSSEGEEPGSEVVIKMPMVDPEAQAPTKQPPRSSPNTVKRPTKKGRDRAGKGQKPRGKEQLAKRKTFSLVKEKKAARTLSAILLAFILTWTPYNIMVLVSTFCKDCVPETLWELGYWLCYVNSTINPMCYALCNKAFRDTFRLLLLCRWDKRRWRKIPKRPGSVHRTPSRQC

Chain of PI3Kα (P42336 whole entry): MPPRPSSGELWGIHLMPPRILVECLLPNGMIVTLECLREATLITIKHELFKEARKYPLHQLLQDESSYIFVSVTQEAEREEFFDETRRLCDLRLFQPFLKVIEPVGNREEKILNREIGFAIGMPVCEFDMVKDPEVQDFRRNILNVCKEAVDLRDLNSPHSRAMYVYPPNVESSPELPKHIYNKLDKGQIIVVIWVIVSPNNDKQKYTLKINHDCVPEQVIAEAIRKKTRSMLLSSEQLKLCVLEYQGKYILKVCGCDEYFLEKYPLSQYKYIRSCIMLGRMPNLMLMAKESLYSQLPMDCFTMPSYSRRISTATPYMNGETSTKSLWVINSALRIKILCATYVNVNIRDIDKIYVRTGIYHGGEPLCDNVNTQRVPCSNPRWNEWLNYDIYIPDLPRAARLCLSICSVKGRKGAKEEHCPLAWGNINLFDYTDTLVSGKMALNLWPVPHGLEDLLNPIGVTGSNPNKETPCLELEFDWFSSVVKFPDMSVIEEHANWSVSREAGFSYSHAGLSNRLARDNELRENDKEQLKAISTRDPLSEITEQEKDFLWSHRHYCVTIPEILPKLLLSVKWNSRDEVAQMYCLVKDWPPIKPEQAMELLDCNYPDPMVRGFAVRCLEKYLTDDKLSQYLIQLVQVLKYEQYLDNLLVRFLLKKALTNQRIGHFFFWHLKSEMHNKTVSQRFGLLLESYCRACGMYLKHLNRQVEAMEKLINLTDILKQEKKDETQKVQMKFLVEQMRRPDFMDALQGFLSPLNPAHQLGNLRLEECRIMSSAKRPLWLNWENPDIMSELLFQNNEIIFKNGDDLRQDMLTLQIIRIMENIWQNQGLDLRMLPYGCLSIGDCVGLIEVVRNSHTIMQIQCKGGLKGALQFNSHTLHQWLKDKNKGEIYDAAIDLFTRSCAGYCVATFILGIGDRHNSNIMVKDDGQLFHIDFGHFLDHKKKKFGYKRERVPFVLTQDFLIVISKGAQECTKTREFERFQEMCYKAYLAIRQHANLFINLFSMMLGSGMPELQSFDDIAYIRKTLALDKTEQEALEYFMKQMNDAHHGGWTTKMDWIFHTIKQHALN
Chain of PI3Kα (P27986 whole entry partner): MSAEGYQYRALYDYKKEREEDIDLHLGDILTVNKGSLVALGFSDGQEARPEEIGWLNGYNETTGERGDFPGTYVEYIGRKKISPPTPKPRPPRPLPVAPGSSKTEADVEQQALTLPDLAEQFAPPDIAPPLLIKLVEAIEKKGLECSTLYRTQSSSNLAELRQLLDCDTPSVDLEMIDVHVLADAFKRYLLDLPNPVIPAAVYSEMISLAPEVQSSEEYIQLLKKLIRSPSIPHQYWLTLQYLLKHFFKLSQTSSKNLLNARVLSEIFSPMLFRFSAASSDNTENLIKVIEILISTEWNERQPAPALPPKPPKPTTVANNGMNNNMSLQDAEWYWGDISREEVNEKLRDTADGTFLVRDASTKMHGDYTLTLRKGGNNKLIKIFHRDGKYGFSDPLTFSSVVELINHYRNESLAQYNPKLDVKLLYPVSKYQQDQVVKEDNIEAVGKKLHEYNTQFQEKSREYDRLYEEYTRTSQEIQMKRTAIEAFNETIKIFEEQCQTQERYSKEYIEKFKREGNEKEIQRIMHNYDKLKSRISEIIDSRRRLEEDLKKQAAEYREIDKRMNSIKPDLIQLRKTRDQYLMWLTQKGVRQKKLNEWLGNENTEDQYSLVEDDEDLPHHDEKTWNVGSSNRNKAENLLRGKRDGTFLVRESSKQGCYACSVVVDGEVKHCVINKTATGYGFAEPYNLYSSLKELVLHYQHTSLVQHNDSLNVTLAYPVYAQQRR

Row | SMILES | IC50 (PI3Kα) [µM] | concentrations at which aggregate particles were observable [1] [µM] | EC50 (human M1 receptor) [µM] | M1 agonistic activity, % of the effect caused by 100 nM acetylcholine (human M1 receptor; compound concentration of 10 µM) [%]
1 | COC(=O)CNc1c(-c2ccc(OC)cc2OC)nc2ccccn12 [Compound 1, methyl 2-((2-(2,4-dimethoxyphenyl)imidazo[1,2-a]pyridin-3-yl)amino)acetate] | 131 | – | – | –
2 | COC(=O)c1ccn2c(NCCN3CCOCC3)c(-c3cccn3C)nc2c1 [Compound 2, methyl 2-(1-methyl-1H-pyrrol-2-yl)-3-((2-morpholinoethyl)amino)imidazo[1,2-a] pyridine-7-carboxylate] | 230 ± 30 | 15.5 to 250 | ~5 | 34±5
